In one assay the target is Histone deacetylase. Nature of the assay: Inhibition of HDAC in human HeLa cell nuclear extract using acetylated lysine as substrate after 30 mins by spectrophotometric analysis.
Details: not given
It counts as protein assay.
`COc1ccc(/C=C/C(=O)NO)cc1OCC(=O)Nc1ccc(F)c(Cl)c1`: the IC50 (commonly the point on the concentration scale where inhibition reaches its midpoint) stood at 5.82 µM.

Turning to `COc1ccc(/C=C/C(=O)NO)cc1OCC(=O)Nc1cccc(C(F)(F)F)c1`, the IC50 was 2.96 µM.

The compound `COc1ccc(/C=C/C(=O)NO)cc1OCC(=O)Nc1ccc(Cl)c(Cl)c1` came in with an IC50 of 1.37 µM. This IC50 lies about 2.2-fold lower than the previous one.

In turn, `COc1ccc(NC(=O)COc2cc(/C=C/C(=O)NO)ccc2OC)cc1` displayed an IC50 of 0.94 µM.

Compound `COc1ccc(/C=C/C(=O)NO)cc1OCC(=O)Nc1ccc(Br)cc1` returned an IC50 of 0.73 µM.

`COc1ccc(/C=C/C(=O)NO)cc1OCC(=O)Nc1ccccc1F` had an IC50 of 0.57 µM.

`COc1ccc(/C=C/C(=O)NO)cc1OCC(=O)Nc1cccc(F)c1` displayed an IC50 of 2.81 µM.

`COc1ccc(/C=C/C(=O)NO)cc1OCC(=O)Nc1cc(C(F)(F)F)cc(C(F)(F)F)c1` registered an IC50 of 4.91 µM. Compared with the last compound, the IC50 is about 1.7-fold higher.

Compound `COc1ccc(/C=C/C(=O)NO)cc1OCC(=O)Nc1cc(Br)cc(C(F)(F)F)c1` showed an IC50 of 9.04 µM.

`COc1ccc(/C=C/C(=O)Nc2ccccc2N)cc1OCC(=O)Nc1ccc(F)c(Cl)c1`: the IC50 was 66.52 µM.

`COc1ccc(/C=C/C(=O)Nc2ccccc2N)cc1OCC(=O)Nc1cccc(C(F)(F)F)c1`: the IC50 turned out to be 22.16 µM.

As to `COc1ccc(/C=C/C(=O)Nc2ccccc2N)cc1OCC(=O)Nc1ccc(Cl)c(Cl)c1`, the IC50 is over 200 µM.

Compound `COc1ccc(NC(=O)COc2cc(/C=C/C(=O)Nc3ccccc3N)ccc2OC)cc1` came in with an IC50 of 49.3 µM.

The compound `COc1ccc(/C=C/C(=O)Nc2ccccc2N)cc1OCC(=O)Nc1ccc(Br)cc1` came in with an IC50 of over 200 µM.

For `COc1ccc(/C=C/C(=O)Nc2ccccc2N)cc1OCC(=O)Nc1ccccc1F`, the IC50 was 15.6 µM. In other words, the double-digit micromolar range.

In turn, `COc1ccc(/C=C/C(=O)Nc2ccccc2N)cc1OCC(=O)Nc1cccc(F)c1` came in with an IC50 of 24.01 µM.

Regarding `COc1ccc(/C=C/C(=O)Nc2ccccc2N)cc1OCC(=O)Nc1cc(C(F)(F)F)cc(C(F)(F)F)c1`, the IC50 is over 200 µM.

`COc1ccc(/C=C/C(=O)Nc2ccccc2N)cc1OCC(=O)Nc1cc(Br)cc(C(F)(F)F)c1`: the IC50 was over 200 µM.

For the compound `COc1ccc(/C=C/C(=O)Nc2ccc(C)cc2N)cc1OCC(=O)Nc1ccc(F)c(Cl)c1`, the IC50 was determined as 31.32 µM.

`COc1ccc(/C=C/C(=O)Nc2ccc(C)cc2N)cc1OCC(=O)Nc1cccc(C(F)(F)F)c1`: the IC50 was over 200 µM.

Compound `COc1ccc(/C=C/C(=O)Nc2ccc(C)cc2N)cc1OCC(=O)Nc1ccc(Cl)c(Cl)c1` showed an IC50 of over 200 µM.

`COc1ccc(NC(=O)COc2cc(/C=C/C(=O)Nc3ccc(C)cc3N)ccc2OC)cc1` displayed an IC50 of 164.61 µM.

For `COc1ccc(/C=C/C(=O)Nc2ccc(C)cc2N)cc1OCC(=O)Nc1ccc(Br)cc1`, the IC50 worked out at 58.24 µM.

As for `COc1ccc(/C=C/C(=O)Nc2ccc(C)cc2N)cc1OCC(=O)Nc1ccccc1F`, the IC50 was found to be 29.5 µM.

In the case of `COc1ccc(/C=C/C(=O)Nc2ccc(C)cc2N)cc1OCC(=O)Nc1cccc(F)c1`, the IC50 worked out at 71.02 µM.

With `COc1ccc(/C=C/C(=O)Nc2ccc(C)cc2N)cc1OCC(=O)Nc1cc(C(F)(F)F)cc(C(F)(F)F)c1`, the IC50 came to 56.71 µM. The IC50 values of the last two compounds are within 1.5-fold of each other.

In turn, `COc1ccc(/C=C/C(=O)Nc2ccc(C)cc2N)cc1OCC(=O)Nc1cc(Br)cc(C(F)(F)F)c1` had an IC50 of 124.67 µM.

The test system of the next assay is MDA-MB-231. Nature of the assay: cells. Type of assay: functional, cell-based. The settings on record: Homo sapiens, MDA-MB-231, 48 h.
Description: Growth inhibition of human MDA-MB-231 cells after 48 hrs by MTT assay
In turn, `COc1ccc(/C=C/C(=O)NO)cc1OCC(=O)Nc1ccc(Cl)c(Cl)c1` had an IC50 of 1.9 µM.

Consider `COc1ccc(NC(=O)COc2cc(/C=C/C(=O)NO)ccc2OC)cc1`, for which the midpoint of inhibition, the IC50, lay at 3.81 µM.

`COc1ccc(/C=C/C(=O)NO)cc1OCC(=O)Nc1ccc(Br)cc1` came in with an IC50 of 5.87 µM.

For `COc1ccc(/C=C/C(=O)NO)cc1OCC(=O)Nc1ccccc1F`, half-maximal inhibition (IC50) required 15.6 µM.

Compound `COc1ccc(/C=C/C(=O)NO)cc1OCC(=O)Nc1cccc(F)c1` gave an IC50 of 3.41 µM. Compared with the last compound, the IC50 is about 4.6-fold lower.

Consider `COc1ccc(/C=C/C(=O)Nc2ccccc2N)cc1OCC(=O)Nc1ccccc1F`, for which 15.5 µM corresponded to half-maximal inhibition (IC50). Compared with the last compound, the IC50 is about 4.5-fold higher.

The next assay has as its system HeLa. Nature of the assay: cells. The settings on record: Homo sapiens, 48 h. Type of assay: functional, cell-based.
Description: Growth inhibition of human HeLa cells after 48 hrs by MTT assay
Compound `COc1ccc(/C=C/C(=O)NO)cc1OCC(=O)Nc1ccc(Cl)c(Cl)c1` registered an IC50 of 13.3 µM.

Compound `COc1ccc(NC(=O)COc2cc(/C=C/C(=O)NO)ccc2OC)cc1` came in with an IC50 of 4.87 µM. This IC50 lies about 2.7-fold lower than the previous one.

`COc1ccc(/C=C/C(=O)NO)cc1OCC(=O)Nc1ccc(Br)cc1` returned a half-maximal inhibitory concentration (IC50) of 5.39 µM.

`COc1ccc(/C=C/C(=O)NO)cc1OCC(=O)Nc1ccccc1F`: the IC50 is 3.91 µM.

In turn, `COc1ccc(/C=C/C(=O)NO)cc1OCC(=O)Nc1cccc(F)c1` yielded an IC50 of 6.48 µM. This IC50 lies about 1.7-fold higher than the previous one.

In turn, `COc1ccc(/C=C/C(=O)Nc2ccccc2N)cc1OCC(=O)Nc1ccccc1F` had an IC50 of 20.5 µM.

The values are drawn from ChEMBL document CHEMBL3259561, “Search for novel histone deacetylase inhibitors. Part II: design and synthesis of novel isoferulic acid derivatives” (Bioorg Med Chem, 2014).
